Assays:
[1] = test system: Candida albicans ATCC 10231; assay: Microbicidal (spread-plate cell viability) assay, candidacidal activity; type: cell-based; details: for IC50: 90 min, 37 °C, 10 mM Tris-HCl pH 7.4, 10^6 cells/mL, CFU plating, estimated, read-out: IC50 (concentration that caused 50% reduction in viable counts) against C. albicans; for effect of high external K^+ on candidacidal activity: Tris buffer with 50 mM KCl vs without
Protocol: (§1) First, we tested the antimicrobial activity of Kal-1 and a shorter Kal-1-derived peptide (Kdp15), both containing the complete γ-core signature of human lactoferrin, against C. albicans and P. aeruginosa. Microbicidal (cidal) activity was determined after 90 min of incubation (37 °C; pH 7.4) with a range of concentrations of each hLf-derived peptide.
(§2) Figure 1 Cell viability and membrane permeabilization assays. C. albicans or P. aeruginosa (10^6 cells/mL) were incubated (90 min, 37 °C) with each peptide/protein at the indicated concentrations. Aliquots were plated on SDA or […], and colonies were counted after 24–48 h (C. albicans) or 24 h (P. aeruginosa). At each point, samples were stained with propidium iodide (PI) and intracellular PI incorporation, indicative of membrane permeabilization, was quantified by flow cytometry. The relative cell viability (blue lines) and cellular permeabilization (red lines) were calculated as the percentage of untreated cells. Human lactoferrin (hLf) and the peptide Lfpep were used as negative and positive controls of cellular permeabilization, respectively.
(§3) Microbial susceptibility to the peptides was determined in a spread-plate assay as described previously. Briefly, two-fold serially diluted peptides were incubated (37 °C) with approximately 10^6 cells/mL in Tris buffer (10 mM Tris-HCl, pH 7.4). After 90 min of incubation with the peptides, aliquots were removed and plated in duplicate on an appropriate agar plate for each species (SDA for C. albicans, TSA for P. aeruginosa). The plates were incubated for 24–48 h at 30 °C (C. albicans) or 24 h at 37 °C (P. aeruginosa) for enumeration. The cell viability values, expressed as colony forming units (CFUs), were determined relative to incubation without added peptides and represent the mean ± standard deviation (±SD) of at least three independent determinations. For inhibition assays, the cell suspensions were preincubated (15 min at 37 °C) with the corresponding inhibitors before the addition of peptides. Water-insoluble inhibitors were prepared in DMSO, such that the final assay volume was ≤1%. Other specific experimental inhibition conditions are described where appropriate. The IC50 value is expressed as the concentration that caused 50% reduction in viable counts.

[2] = test system: Pseudomonas aeruginosa 10145 (PAO1); assay: Microbicidal (spread-plate cell viability) assay, pseudomonacidal activity; type: cell-based; details: for IC50: 90 min, 37 °C, 10 mM Tris-HCl pH 7.4, 10^6 cells/mL, CFU plating, read-out: IC50 (concentration that caused 50% reduction in viable counts) against P. aeruginosa; for effect of high external K^+ on pseudomonacidal activity: Tris buffer with 50 mM KCl vs without
Protocol: as §1, §2, §3

C. albicans cells [3] = assay: Cell membrane permeability assay (propidium iodide, flow cytometry); type: cell-based, Candida albicans; details: 90 min, 37 °C, range of concentrations, PI 9 μM
Protocol: (§4) To determine whether Kal-1 and Kdp15 exert a permeabilizing effect on fungal or bacterial membranes, the cellular influx of the fluorescent nucleic-acid-binding dye propidium iodide (PI) was assessed. As PI itself cannot permeate through an intact phospholipid bilayer, only permeabilized cells take up PI, resulting in DNA intercalation and fluorescence.
(§5) Flow cytometry was used to assess the ability of peptides to permeabilize plasma membranes of cells in incorporation of the DNA intercalating dye propidium iodide (PI). C. albicans or P. aeruginosa cells (10^6 cells/mL) in Tris buffer were incubated with two-fold serially diluted peptides for 90 min at 37 °C and subsequently reincubated with PI (9 μM, final concentration) for 5 min. The suspensions were centrifuged at 1100× g for 10 min and subsequently washed with Tris buffer to remove any unbound PI. The peptide Lfpep was used to disrupt the cytoplasmic membrane (positive control). Cell fluorescence was monitored using a Cytomics FC500 Flow Cytometer (Beckman Coulter Life Sciences, Indianapolis, IN, USA). The PI fluorescence was excited at a wavelength of 488 nm and emission was registered at 610 nm. For each treatment, 20,000 events were measured. Data were acquired and analyzed using CytExpert 2.1 software. Results were expressed as the percentage of PI-positive cells with respect to the unstained cells (control). […]

P. aeruginosa cells [4] = assay: as above; type: cell-based, Pseudomonas aeruginosa; details: 90 min, 37 °C, range of concentrations, PI 9 μM
Protocol: as §4, §5

C. albicans cells [5] = assay: Oxygen consumption measurement (Clark-type electrode); type: cell-based, Candida albicans; details: 5 × 10^6 cells/mL, peptides at IC50, piericidin A 32 μM, at least 30 min, 25 °C
Protocol: (§6) Figure 3 Effect of cellular respiration on the microbicidal activity of hLf γ-core-containing peptides. (A,C) Oxygen consumption was measured in C. albicans and P. aeruginosa cellular suspensions in the absence (control) or the presence of kaliocin-1 (Kal-1), Kdp15, or human lactoferrin (hLf), and piericidin A (positive control). (B,D) Effect of cellular respiration on the microbicidal activity of hLf γ-core-containing peptides. Cells (10^6 cells/mL) were pre-incubated (15 min, 37 °C) with 32 μM piericidin A and incubated for 90 min at 37 °C with the peptides hLf or BM2. The cell viability was determined by means of the plate counting method. The results are the mean ± SD from duplicates of at least three independent experiments. * p < 0.05, ** p < 0.01, and *** p < 0.001 were used.
(§7) C. albicans or P. aeruginosa cells were grown to the mid-logarithmic phase, washed twice in Tris buffer, and resuspended in the same buffer, as described in [9, 10]. Briefly, cells (5 × 10^6 cells/mL) were pre-incubated for 15 min at 37 °C with the peptides (IC50). […] Oxygen consumption was measured using a Clark-type oxygen electrode (Dual digital-model 20, Rank Brothers Ltd., Cambridge, UK) in a closed jacketed chamber maintained at 25 °C. […] The viability of the cells was determined at 30 min by removing aliquots from the oxygen chambers and plating the subsequent dilutions on SDA or TSA plates.

P. aeruginosa cells [6] = assay: as above; type: cell-based, Pseudomonas aeruginosa; details: 5 × 10^6 cells/mL, peptides at IC50, piericidin A 32 μM, at least 30 min, 25 °C
Protocol: as §6, §7

C. albicans cells [7] = assay: Measurement of intracellular ATP (BacTiter-Glo); type: cell-based, Candida albicans; details: C. albicans 10^6 cells/mL, candidacidal concentration, 90 min, 37 °C; BM2 0.25 μM
Protocol: Total ATP was measured by using the BacTiter-Glo^TM Microbial Cell Viability Assay (Promega Co., Madison, WI, USA) according to the manufacturer’s instructions. […] Aliquots (100 μL) were incubated (90 min at 37 °C) with kaliocin-1, Kdp15, or human lactoferrin and the BM2 peptide (positive control). One hundred microliters of incubation mix was transferred into a 96-well opaque white plate, mixed with an equal volume of the BacTiter-Glo reagent, and incubated for 15 min in the dark. The reagent used a thermostable luciferase to produce luminescence in an ATP-dependent manner. The emitted luminescence was detected by using a Varioskan Flash multimode reader (Thermo Scientific, Waltham, MA, USA) with a 10 s of shaking and 1 s integration time. A calibration curve was prepared for each experiment, with ATP standards ranging from 1 to 1000 nM. For assays performed in the presence of the BM2 peptide, samples were preincubated with 0.25 μM BM2 for 30 min at 37 °C. All the tests were performed in triplicate at least four times.

Pma1p H^+-ATPase = Pma1p H^+-ATPase (Candida albicans, UniProt P28877); details: starved C. albicans 10^7 cells/mL in 50 mM KCl, pre-incubated with peptide 2 × IC50, 2.5 mM glucose; control ~1.3 pH units
Protocol: C. albicans cells (10^7 cells/mL) in 50 mM KCl were preincubated with the peptides (2 × IC50) for 20 min. Glucose (final concentration of 2.5 mM) was then added to induce H^+ efflux via Pma1p H^+-ATPase, as indicated by the subsequent external acidification.
To measure the proton pumping activity of Pma1p H^+-ATPase, a glucose-induced acidification assay of the medium was performed as previously described [10]. Briefly, cultures of C. albicans cells were grown to the mid-log phase in SDB medium and washed twice in Tris buffer (pH 8.0). The cells were resuspended in 50 mM KCl and maintained for 18 h at 4 °C to reduce metabolic activity to a minimum (starvation conditions). To determine the external acidification, starved cells (~10^7 cells/mL) were incubated for 15 min at 30 °C in the absence or the presence of the peptides (2 × IC50). Human lactoferrin (20 μM) was used as a positive control. The initial pH of cellular suspension was adjusted with HCl to pH 6.6 (approx.) and glucose was immediately added (final concentration, 2.5 mM) to the cellular suspension. The pH of the medium was recorded at 1 min intervals for 20 min using a SevenMulti S50-K pH meter (Mettler-Toledo, Greifensee, Switzerland) with a calibrated electrode (InLab 413, Mettler-Toledo) with constant stirring. Every experiment was performed using two replicates and repeated independently three times.

C. albicans cells [8] = assay: Extracellular potassium measurement (K+ efflux, ICP-OES); type: cell-based, Candida albicans; details: 10^7 cells/mL, peptides 2 × IC50, 37 °C
Protocol: (§8) Figure 2 Potassium efflux induced by hLf γ-core-containing peptides. (A,D) Kinetics of K^+ efflux. C. albicans or P. aeruginosa (10^7 cells/mL) were incubated with kaliocin-1, Kdp15, human lactoferrin (hLf), and Lfpep. hLf and Lfpep were used as negative and positive controls of the membrane permeabilization, respectively. The effect of antifungal BM2 peptide was evaluated. The extracellular K^+ concentration was quantified at different times. (B,C,E) Effect of extracellular K^+ and TEA^+ on microbicidal activity. (B,E) microbicidal activity was assessed in Tris buffer in the absence or in the presence of 50 mM KCl or (C) 10 mM TEA^+. Cell viability was determined by plating aliquots of the cell suspensions. The percentage of viable cells was determined relative to that for cells incubated without peptides (control). […]
(§9) Measurements of potassium were performed using inductively coupled plasma optical emission spectrometry (ICP-OES) with a Perkin-Elmer Optima 2000 DV spectrometer. […] The percentage of cytosolic K^+ released from cell suspensions treated with Lfpep was determined in positive control assays. The total cellular K^+ content (100% value) was measured in the supernatant of cellular suspensions previously treated only with 0.5% (v/v) HClO4, heated for 1 h at 95 °C, and centrifuged to remove cell debris. […]

P. aeruginosa cells [9] = assay: as above; type: cell-based, Pseudomonas aeruginosa; details: 10^7 cells/mL, peptides 2 × IC50, 37 °C
Protocol: as §8, §9

[10] = test system: Candida albicans ATCC 10231; details: used in control assays; cited from earlier work
Protocol: as §1, with “peptide. The hLf γ-core-containing peptides were microbicidal in a concentration-dependent way (Figure 1). […] The IC50 es ...” for “peptide.”

[11] = cells pre-incubated 15 min, 37 °C with 32 μM piericidin A, then 90 min with peptide

Pma1p H^+-ATPase, sequence (P28877 whole entry): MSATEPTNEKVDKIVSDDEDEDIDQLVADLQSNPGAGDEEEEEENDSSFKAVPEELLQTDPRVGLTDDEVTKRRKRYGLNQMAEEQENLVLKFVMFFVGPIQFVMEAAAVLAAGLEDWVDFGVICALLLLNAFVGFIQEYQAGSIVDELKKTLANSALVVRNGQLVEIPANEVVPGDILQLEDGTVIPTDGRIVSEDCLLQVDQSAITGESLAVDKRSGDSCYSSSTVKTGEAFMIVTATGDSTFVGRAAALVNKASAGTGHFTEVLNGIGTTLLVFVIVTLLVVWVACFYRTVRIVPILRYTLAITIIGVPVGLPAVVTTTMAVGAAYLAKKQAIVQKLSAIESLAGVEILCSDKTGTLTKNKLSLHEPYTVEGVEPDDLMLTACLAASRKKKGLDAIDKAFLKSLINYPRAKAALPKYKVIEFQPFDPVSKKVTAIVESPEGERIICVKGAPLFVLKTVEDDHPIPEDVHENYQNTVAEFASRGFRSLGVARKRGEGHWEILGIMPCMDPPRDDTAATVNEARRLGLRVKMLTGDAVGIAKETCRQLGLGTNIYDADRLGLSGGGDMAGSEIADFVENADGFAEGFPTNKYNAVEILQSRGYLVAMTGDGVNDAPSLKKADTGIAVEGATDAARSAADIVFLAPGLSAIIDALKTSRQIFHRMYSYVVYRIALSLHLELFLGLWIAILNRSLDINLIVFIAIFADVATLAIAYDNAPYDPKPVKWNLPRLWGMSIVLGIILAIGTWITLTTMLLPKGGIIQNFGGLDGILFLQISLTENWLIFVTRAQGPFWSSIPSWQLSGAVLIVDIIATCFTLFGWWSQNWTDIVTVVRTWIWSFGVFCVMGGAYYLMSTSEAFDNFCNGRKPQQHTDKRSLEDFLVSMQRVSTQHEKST

Row | Sequence | IC50 [1] [µM] | effect of high external K^+ on candidacidal activity [1] | effect of mitochondrial ATP synthase inhibition (oligomycin A) on candidacidal activity ([1]; cells pre-incubated 15 min, 37 °C with 16 μg/mL oligomycin A) | effect of respiration inhibition (piericidin A) on candidacidal activity [1, 11] | effect of Tok1p K^+ channel block (TEA^+) on candidacidal activity ([1]; cells pre-incubated 15 min with 10 mM TEA^+) | IC50 against C. albicans relative to IC50 of native hLf (fold greater) ([1]; vs hLf IC50 3 μM) [fold] | IC50 [2] [µM] | effect of high external K^+ on pseudomonacidal activity [2] | effect of respiration inhibition (piericidin A) on pseudomonacidal activity [2, 11] | PI fluorescent cells (plasma membrane permeabilization), C. albicans (C. albicans cells [3]) | PI fluorescent cells (plasma membrane permeabilization), P. aeruginosa (P. aeruginosa cells [4]) | oxygen consumption of C. albicans in presence of the substance (C. albicans cells [5]) | oxygen consumption of P. aeruginosa in presence of the substance (P. aeruginosa cells [6]) | increment in intracellular ATP (iATP) level compared to untreated control (C. albicans cells [7]) | decrease of external pH after 20 min (glucose-induced acidification) (Pma1p H^+-ATPase) | K^+ efflux from C. albicans, in words (C. albicans cells [8]) | K^+ efflux from P. aeruginosa, in words (P. aeruginosa cells [9]) | previously reported microbicidal concentration (organism not given) [10] [µM]
1 | NLCRLCAGTGENKCA [Kdp15] | 100 | seemed to protect | less susceptible | less susceptible | less susceptible | ~33 | 3 | seemed to protect | less susceptible | not significantly increased | not significantly increased | equal to that of untreated (control) cells | equal to that of untreated (control) cells | ~ 5 fold | approximately 0.5 pH units |  |  | 
2 | TKCFQWQRNMRKVRGPPVSCIKR [Lfpep, antimicrobial hLf-derived peptide without a γ-core motif that permeabilizes bacterial and fungal cytoplasmic membranes, reference compound] | 20 | not modified |  |  |  |  | 0.5 | not modified |  | significant increase | significant increase |  |  |  |  | rapid and increased K^+ release | rapid and increased K^+ release | 50

Source: paper PMC11395145, “The Archetypal Gamma-Core Motif of Antimicrobial Cys-Rich Peptides Inhibits H^+-ATPases in Target Pathogens” (International Journal of Molecular Sciences, 2024)
